Results from PMC8704315, “Lichen-Derived Compounds and Extracts as Biologically Active Substances with Anticancer and Neuroprotective Properties” (Pharmaceuticals, 2021).
Several values for one entry are separate records, joined by “and”; a condition that tells them apart may be missing. Identical values can stand only once. Like-named read-outs stand apart in the source and are kept apart here.

Legend:
A-172 cell line = test: MTT cell viability assay, 48 h, A-172; assay type: cell-based, Human; settings: for IC50: Homo sapiens, read-out: IC50 A-172
PAMPA-BBB permeability = assay type: in vitro ADME
Text: To evaluate the effective permeability (Pe) of the salazinic acid, evernic acid, (−)-usnic acid as pure compounds and from the extracts (P. sulcata acetone extract, E. prunastri acetone extract, C. uncialis acetone extract, respectively), Parallel Artificial Membrane Permeability Assay (PAMPA) for the Blood-Brain Barrier (BBB) was used (Pion Inc., Billerica, MA, USA). The stock solutions of acetone extracts from C. uncialis, E. prunastri and P. sulcata and from (−)-usnic acid, evernic acid, salazinic acid, were prepared with DMSO (the concentrations of salazinic acid, evernic acid, and (−)-usnic acid reached were 2.5 mg/mL for pure compounds and extracts). Next, the donor solution was prepared (5 µL of stock solution/1000 µL of Prisma buffer, pH = 7.4 (Prisma HT, Pion Inc.). Subsequently, each filter membrane of the acceptor plate wells was coated with 5 μL BBB-1 lipid solution (Pion Inc.), and 180 µL of the donor solution was added to the donor wells. The acceptor well was filled with 200 µL BSB (Brain Sink Buffer, Pion Inc.). The plate was incubated for 1 h or 4 h at 37 °C. After incubation, the donor and acceptor concentrations of examined substances were determined using the HPLC. Effective permeability (Pe) of the compounds was calculated by using the following equation. (4) Pe=−ln(1−CA/Ceq)/S×(1/VD+1/VA)×t where Pe is the effective permeability coefficient (cm/s), VD = donor volume, VA = acceptor volume, Ceq = equilibrium concentration and Ceq=CD×VD+CA×VA/VD+VA , S = membrane area, and t = incubation time (in seconds).
Compounds with Pe (× 10^−6 cm/s) > 1.5 are classified as high permeation predicted, while Pe (× 10^−6 cm/s) < 1.5 are classified as low permeation predicted. Samples were analyzed in triplicate and the average is reported.

[1] = molecular target: T1, COX-2 enzyme (Human recombinant) (Homo sapiens, UniProt P35354); test: COX-2 activity assay (Cayman COX Activity Assay Kit); assay type: biochemical; settings: for inhibition at 250 µg/mL: read-out: COX-2 Inhibition (%)
T1 construct: purchased Cayman 60122
T1 sequence (P35354 18-604): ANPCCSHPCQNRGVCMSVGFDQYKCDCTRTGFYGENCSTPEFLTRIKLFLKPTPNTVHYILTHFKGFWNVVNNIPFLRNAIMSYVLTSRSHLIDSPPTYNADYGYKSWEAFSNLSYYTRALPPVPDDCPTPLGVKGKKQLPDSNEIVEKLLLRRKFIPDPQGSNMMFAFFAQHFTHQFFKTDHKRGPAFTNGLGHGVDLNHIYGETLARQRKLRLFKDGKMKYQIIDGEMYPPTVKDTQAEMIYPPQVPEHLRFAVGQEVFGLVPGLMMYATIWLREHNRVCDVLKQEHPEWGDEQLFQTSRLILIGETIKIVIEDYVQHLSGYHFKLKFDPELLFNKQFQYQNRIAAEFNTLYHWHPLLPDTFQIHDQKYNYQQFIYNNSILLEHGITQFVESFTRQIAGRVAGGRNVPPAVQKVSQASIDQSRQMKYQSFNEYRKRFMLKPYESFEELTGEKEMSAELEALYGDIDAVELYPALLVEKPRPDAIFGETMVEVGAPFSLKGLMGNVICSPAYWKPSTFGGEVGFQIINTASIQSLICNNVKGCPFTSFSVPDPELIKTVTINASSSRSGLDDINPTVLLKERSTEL
Method: A volume of 0.01 mL of the studied sample, dissolved in pure DMSO to obtain 5 mg/mL, was mixed with 0.12 mL of Tris buffer (100 mM, pH 8.0), 0.01 mL hemin, shaken and left for 5 min at 25 °C followed by addition of 0.02 mL colorimetric substrate and 0.02 mL arachidonic acid solution. To start the reaction, 0.02 mL of COX-2 solution was added. The increase of absorbance during incubation at room temperature was recorded at 590 nm. Negative (blank) sample (buffer instead of studied sample) and positive sample (COX-2 inhibitor DuP-697) were run simultaneously. Background of studied samples (0.01 mL of sample mixed with 0.19 mL buffer) was also measured and included in the calculations. Each sample was run in at least 4 repeats. Inhibition of the enzyme activity was expressed in % (indicates by how many % the activity has been reduced in relation to the negative or blank sample for which the maximum activity was assumed as 100%, under the conditions used in the method). Also, inhibition of enzyme activity was expressed as acetylsalicylic acid equivalent concentration (mg/mL). For this purpose, acetylsalicylic acid solutions were prepared at 14 concentrations (0.2-10.0 mg/mL) and analyzed similarly to tested samples.

CUPRAC assay = settings: concentration giving absorbance 0.5; highest 250.0 µg/mL for substances, 312.5 µg/mL for extracts; ± SEM, n = 3
[2] = molecular target: T2, glutathione peroxidase (GPx) (Bos taurus, UniProt P00435); test: Effect on glutathione peroxidase activity; assay type: biochemical; settings: for inhibition at 243.9 µg/mL: read-out: GPx Inhibition under Reaction Conditions (%)
T2 construct: purchased Sigma G6137
T2 sequence (P00435 1-205): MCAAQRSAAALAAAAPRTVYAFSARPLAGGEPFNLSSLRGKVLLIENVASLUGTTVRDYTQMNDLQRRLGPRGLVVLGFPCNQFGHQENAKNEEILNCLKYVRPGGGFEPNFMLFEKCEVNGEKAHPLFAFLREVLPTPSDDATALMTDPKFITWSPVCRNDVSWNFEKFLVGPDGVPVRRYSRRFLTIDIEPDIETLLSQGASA
Method: Sample (20 µL, 5 mg/mL of pure DMSO) was mixed with 8 μL of EDTA solution, 10 μL of glutathione reductase (0.2 U Sigma G3664), 4 μL of GSH solution, 10 μL of glutathione peroxidase (0.04 U Sigma G6137), 22 μL of H2O2 and 332 μL of 50 mM sodium phosphate, pH 7.0). To start the reaction, 4 μL of NADPH solution (N5130) was added and the decrease in the absorbance (340 nm) was read after 10 min of incubation at 25 °C. All solutions were prepared in 50 mM buffer and concentrations of reagents in the final mixture were as follows: 1mM EDTA, 0.2 U glutathione reductase, 2 mM GSH, 0.04 U glutathione peroxidase, 1.5 mM H2O2 and 0.8 mM NADPH. Blank sample was prepared with buffer instead of the studied sample and background was measured (mixture containing studied sample and buffer only). One unit of enzyme activity was defined as nMol of NADPH consumed/min·mL sample, in comparison with nMol of NADPH consumed/min in blank (reagent) sample [76].

[3] = sample 5 mg/mL stock, 250.0 µg/mL in assay, ± SEM
[4] = 243.9 μg/mL in the reaction mixture
[5] = A 172, 48 h treatment, MTT, ± SEM
[6] = pH 7.4, Pe (effective permeability, PAMPA-BBB)

| SMILES | IC50 (A-172 cell line; A 172, 48 h) | Papp at 1 h, 12.5 µg/mL (PAMPA-BBB permeability; pH 7.4, compound permeated from the acetone extract, 1 h, 37 °C, pH 7.4, ± SEM, n = 3, read-out: Pe × 10^−6 (cm/s) t = 1 h) [×10⁻⁶ cm/s] | Papp at 12.5 µg/mL (PAMPA-BBB permeability; pH 7.4, from the extract or as a pure compound, bound stated, read-out: Pe (effective permeability, PAMPA-BBB)) [×10⁻⁶ cm/s] | Papp at 1 h, 12.5 µg/mL (PAMPA-BBB permeability; pH 7.4, pure compound (PC), 1 h, 37 °C, pH 7.4, ± SEM, n = 3, read-out: Pe × 10^−6 (cm/s) t = 1 h) [×10⁻⁶ cm/s] | inhibition at 250 µg/mL [1] [%] | Equivalent Concentration of Acetylsalicylic Acid [1, 3] [mg/mL] | CUPRAC IC0.5 (CUPRAC assay) [µg/mL] | GPx Inhibitory Activity (nMol Depleted NADPH/min Incubation) [2, 4] | inhibition at 243.9 µg/mL [2] [%] | cell viability A-172 (A-172 cell line; 10–100 µM, compared to vehicle-treated control) | IC50 (A-172 cell line; [5]) | Pe × 10^−6 (cm/s) t = 1 h (PAMPA-BBB permeability; 1 h, 12.5 µg/mL, pH 7.4) | Pe × 10^−6 (cm/s) t = 4 h (PAMPA-BBB permeability; 4 h, 12.5 µg/mL, pH 7.4) | Papp at 12.5 µg/mL (PAMPA-BBB permeability; [6]) [×10⁻⁶ cm/s] | Papp at 1 h, 12.5 µg/mL (PAMPA-BBB permeability; pH 7.4, Pe × 10^−6 (cm/s) t = 1 h) [×10⁻⁶ cm/s] | Papp at 4 h, 12.5 µg/mL (PAMPA-BBB permeability; pH 7.4, Pe × 10^−6 (cm/s) t = 4 h) [×10⁻⁶ cm/s] | inhibition at 250 µg/mL [1, 3] [%] | inhibition at 243.9 µg/mL [2, 4] [%] | GPx Inhibition under Reaction Conditions (%) [2, 4] |
| --- | --- | --- | --- | --- | --- | --- | --- | --- | --- | --- | --- | --- | --- | --- | --- | --- | --- | --- | --- |
| CC(=O)C1=C(O)C=C2Oc3c(C(C)=O)c(O)c(C)c(O)c3C2(C)C1=O (single isomer, unassigned; (-)) [(−)-Usnic acid, (−)-usnic acid] | 31.5 µg/mL and 91.4 µM | 140 ± 7.3 | > 1.5 | 92.8 ± 6.3 | 59.3 ± 3.5 | 12.9 ± 1.5 | >250.0 | 27.3 ± 1.3 nMol Depleted NADPH/min Incubation | 13.7 ± 2.3 |  |  |  |  |  |  |  |  |  |  |
| COc1cc(C)c(C(=O)Oc2cc(C)c(C(=O)O)c(O)c2)c(O)c1 [Evernic acid, evernic acid] |  |  |  |  |  | 10.9 ± 1.8 | >250.0 | 39.9 ± 1.0 nMol Depleted NADPH/min Incubation |  | ~ 80% | > 33.2 µg/mL and > 100 µM | 5.0 ± 0.7 × 10^−6 cm/s | 7.2 ± 0.4 × 10^−6 cm/s | > 1.5 | 5.2 ± 0.8 | 8.6 ± 0.4 | 50.7 ± 2.1 | 20 ± 2.1 |  |
| Cc1cc(O)c(C=O)c2c1C(=O)Oc1c(CO)c(O)c3c(c1O2)C(O)OC3=O (stereo not drawn) [Salazinic acid, salazinic acid] |  |  |  |  |  | 12.9 ± 0.1 | >250.0 |  |  |  | > 38.8 µg/mL and > 100 µM |  |  | < 0.5 |  |  | 60.3 ± 3 |  | - |
